Assay results published in ChEMBL document CHEMBL5154828 (J Med Chem, 2022).
Active and inactive are the calls of the source. No cut-off for these calls is given here.

Tests used:
[1] = Drug concentration in rat ovary at 20 mg/kg, po measured after 2 hrs; format: ADME, organism-based, Female gonad; details: female, read-out: Ct
[2] = target: Estrogen receptor beta (Homo sapiens, UniProt Q92731); assay: Antagonist activity at ERbeta expressed in HEK293/Gal4 cells incubated for 24 hrs in presence of di-arylpropionitrile by luciferase reporter gene assay
[3] = AUC (0 to t) in Sprague-Dawley rat at 10 mg/kg, po measured up to 24 hrs by LC/MS/MS analysis; format: ADME, organism-based; design: time < 24 hrs, dose 10 mg/kg, route po; details: in vivo
[4] = Drug concentration in rat plasma at 20 mg/kg, po measured after 2 hrs; format: ADME, organism-based
[5] = test system: Estrogen receptor (Homo sapiens), P03372 [Y537S]; assay: Induction of ERalpha Y537S mutant degradation in human MCF7 cells at 10 to 100 nM incubated for 4 hrs by Western blot analysis; format: cell-based; details: dose 10-100 nM
[6] = AUC (0 to t) in ICR mouse at 2 mg/kg, iv measured up to 24 hrs by LC/MS/MS analysis; format: ADME, organism-based; design: dose 2 mg/kg, time < 24 hrs, route iv; details: in vivo
[7] = Drug concentration in rat uterus at 20 mg/kg, po measured after 2 hrs; format: ADME, organism-based; details: female, read-out: Ct
[8] = Tmax in ICR mouse at 5 mg/kg, po measured up to 24 hrs by LC/MS/MS analysis; format: ADME, organism-based; details: in vivo
[9] = Ratio of drug concentration in rat kidney to plasma at 20 mg/kg, po measured after 2 hrs
[10] = test system: CAMA-1; assay: Antiproliferative activity against human CAMA-1 cells assessed as inhibition of cell growth measured after 8 days by cell titre glo luminescence assay; format: functional, cell-based; details: time 8.0 day
[11] = Elimination half life in Sprague-Dawley rat at 10 mg/kg, po measured up to 24 hrs by LC/MS/MS analysis; format: ADME, organism-based; details: in vivo, read-out: beta t1/2 (converted)
[12] = Drug concentration in rat blood at 20 mg/kg, po measured after 2 hrs; format: ADME, organism-based; details: whole blood, read-out: Ct
[13] = Ratio of drug concentration in rat blood to plasma at 20 mg/kg, po measured after 2 hrs; details: blood and plasma
[14] = Cmax in ICR mouse at 2 mg/kg, iv measured up to 24 hrs by LC/MS/MS analysis; format: ADME, organism-based; design: dose 2 mg/kg, time < 24 hrs, route iv; details: in vivo

Estrogen receptor beta, sequence (Q92731 whole entry, the tested form may be a part): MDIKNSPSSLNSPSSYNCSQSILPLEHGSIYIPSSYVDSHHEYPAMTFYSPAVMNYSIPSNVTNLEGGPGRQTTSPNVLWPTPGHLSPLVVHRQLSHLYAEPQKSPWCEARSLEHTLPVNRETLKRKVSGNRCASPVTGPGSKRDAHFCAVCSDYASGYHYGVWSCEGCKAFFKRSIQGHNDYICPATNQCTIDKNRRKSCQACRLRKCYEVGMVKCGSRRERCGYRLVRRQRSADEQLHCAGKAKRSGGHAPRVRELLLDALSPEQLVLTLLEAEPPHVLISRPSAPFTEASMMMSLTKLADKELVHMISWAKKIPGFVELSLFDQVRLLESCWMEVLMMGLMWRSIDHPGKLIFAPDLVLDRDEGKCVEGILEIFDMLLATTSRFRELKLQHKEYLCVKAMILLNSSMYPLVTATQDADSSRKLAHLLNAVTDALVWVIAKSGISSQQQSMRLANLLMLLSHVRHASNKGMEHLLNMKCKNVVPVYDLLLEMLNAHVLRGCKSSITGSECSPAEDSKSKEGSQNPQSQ
Estrogen receptor (Homo sapiens), P03372 [Y537S], sequence (P03372 whole entry Y537S): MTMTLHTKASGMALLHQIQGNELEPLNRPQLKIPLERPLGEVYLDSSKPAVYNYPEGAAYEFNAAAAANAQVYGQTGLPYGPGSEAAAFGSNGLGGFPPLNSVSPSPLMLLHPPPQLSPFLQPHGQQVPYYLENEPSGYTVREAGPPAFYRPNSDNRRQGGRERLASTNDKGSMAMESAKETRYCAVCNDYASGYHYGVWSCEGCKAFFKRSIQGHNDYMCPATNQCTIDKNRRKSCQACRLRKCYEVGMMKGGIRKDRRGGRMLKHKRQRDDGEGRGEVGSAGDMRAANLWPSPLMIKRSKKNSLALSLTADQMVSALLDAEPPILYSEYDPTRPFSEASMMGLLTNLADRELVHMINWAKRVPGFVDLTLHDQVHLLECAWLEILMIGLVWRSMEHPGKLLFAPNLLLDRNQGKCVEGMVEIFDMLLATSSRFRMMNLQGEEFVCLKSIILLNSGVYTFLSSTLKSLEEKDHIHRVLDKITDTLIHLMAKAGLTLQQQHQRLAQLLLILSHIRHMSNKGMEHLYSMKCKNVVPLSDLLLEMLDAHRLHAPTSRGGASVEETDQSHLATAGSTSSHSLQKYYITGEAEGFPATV

CC(F)(F)c1cc(Cl)ccc1-c1sc2c(ccc3[nH]ncc32)c1Oc1ccc(OC2CN(CCCF)C2)cc1
concentration at 2 h [1]: 4420 ng/mL | IC50 [2]: 2.3 nM | AUC(0-t) at 24 h [3]: 3180 ng·h/mL | concentration at 2 h [4]: 609 ng/mL | Activity [5]: Active | AUC(0-t) at 24 h [6]: 4630 ng·h/mL | concentration at 2 h [7]: 2170 ng/mL | Tmax [8]: 2.7 h | Kp at 2 h [9]: 11.7 | Activity [10]: Active | half-life [11]: 4.6 h | concentration at 2 h [12]: 480 ng/mL | blood plasma ratio at 2 h [13]: 0.8 | Cmax [14]: 764 ng/mL
